The values below come from US20180215784A1, “METHOD FOR PREPARATION OF N-ACYL PEPTIDES, POLYPEPTIDES AND PROTEINS” (NEODEL TEC LTD., priority 2015, published 2018).

Converted amounts (≈) assume the structure as drawn. Where two headings read alike, the source gives them in different places.

In series [1] the test system is human skin fibroblast cell line CRL1121. Briefly: Stimulation of pro-collagen synthesis/secretion in cultured human skin fibroblasts (immunoblotting, densitometry). The settings on record: for pro-collagen synthesis/secretion: serum-free medium with sodium ascorbate and 0.5% ethanol, vs control carrier, immunoblot FIG. 1. The class given is cell-based. The procedure: The effect of N-octanoyl-Gly-Pro (also referred to herein as OGP) prepared in Example 2 on intracellular synthesis of pro-collagen, the precursor of collagen, was tested. OGP was applied from a 250 mg/ml stock solution in ethanol. The composition of the solute, estimated by thin layer chromatography, was 80% OGP, 15% nicotinamide and 5% octanoic acid.
The human skin fibroblast cell line CRL1121, obtained from ATCC (American Type Culture Collection), was used for monitoring pro-collagen synthesis. Cells were grown in high glucose-DMEM containing 10% Fetal Calf Serum and antibiotics (streptomycin and penicillin). Confluent cells were suspended and inoculated into wells in 96-well microplates at 7,500 cells/well. At confluency, the cells were placed on fresh medium plus sodium ascorbate (50 μg/ml) for 24 hrs. The cells were then washed with phosphate-buffered saline (PBS) and placed on serum-free medium containing sodium ascorbate, 0.5% ethanol and 50 μM OGP. Controls included cells placed in the same medium, without OGP. After 24 hrs incubation of the experimental and control cells, media were collected, centrifuged, and the proteins were denatured by SDS and heat, and stored at −20° C. for immunoblotting analyses. The cell layers were washed with PBS, dissolved in SDS sample buffer, centrifuged and stored at −20° C. until use.
The relative amount of pro-collagen secreted into the medium was determined by immunoblotting with an antibody directed to the C-terminal telopeptide of the α1(I) collagen chain, followed by enhanced chemiluminescence detection and densitometry (Shalitin N, Schlesinger H, Levy, M J, Kessler E, Kessler-Icekson G. Expression of procollagen C-proteinase enhancer in cultured rat heart fibroblasts: Evidence for co-regulation with type I collagen, J. Cell. Biochem. 90:397-407, 2003). Protein concentrations in the cell lysates were determined using the Lowry method and served for standardization. The relative Optical Density of the band corresponding to the (I) chain of pro-collagen was divided by the amount of protein and was expressed as D/P (i.e. band intensity per 1 μg protein). […] FIG. 2 presents the relative amounts of the produced and secreted pro-collagen in the OGP-treated culture compared to the control.
For orientation: In western blotting, separated proteins are transferred to a membrane and probed.

For series [2] the following is noted: cited from earlier work.

N-octanoyl-Gly-Pro [OGP]: the pro-collagen synthesis/secretion result in series [1] (50 μM OGP, 24 hrs) was “greatly enhanced pro-collagen synthesis”; in series [1] (50 μM OGP, 24 hrs, listed as Oct-GP), “stimulates pro-collagen synthesis/secretion”. Further, in series [1] (50 μM OGP, 24 hrs, densitometry of control lanes 3 and 4, standardized to protein contents), the “increase of pro-collagen synthesis and secretion (factor vs control)” value was at least 8.3. Also, the “relative amounts of pro-collagen produced and secreted into the medium (D/P ratio)” value in series [1] (Oct-GP-treated culture vs control, densitometry standardized by protein, FIG. 2) is on record as “higher than those of the control”.

As to `NC(=O)c1cccnc1` [nicotinamide], the solubility in series [2] (ethanol) is 1 g/1.5 ml; in series [2] (water), 1 g/mL (≈ 8190 mM).
